PMC6070540, “SUMO-mediated regulation of NLRP3 modulates inflammasome activity” (Nature Communications, 2018)

How the values were obtained:
NLRP3 and ASC = test: PLA NLRP3/ASC (inflammasome formation); format: cell-based, murine; settings: WT BMDMs; LPS 4 h followed by 10 µM nigericin 30 min or 5 mM ATP 20 min (ATP n = 1)
Method: (§1) For immunofluorescence staining, 1.5 × 10^5 cells were plated on 13 mm glass cover slips (VWR). Cells were either left untreated, or treated with LPS (500 ng/ml) for 4 h followed or not by 10 µM nigericin for 30 min or 5 mM ATP for 20 min, before being fixed in 4% paraformaldehyde for 10 min. Following 10 min permeabilization with PBS containing 0.5% Triton X-100, cells were incubated for 1 h in 5% BSA in PBS. Respective primary antibodies were then added as follows: mouse α-NLRP3 (AG-20B-0014, AdipoGen, 1:1000), rabbit α-SUMO-2/3 (4971, Cell Signalling, 1:1000), rabbit α-ASC (AG-25B-0006, AdipoGen, 1:200) and rabbit α-MAPL (ab84067, Abcam, 1:1000). Alexa Fluor 633-conjugated Phalloidin (Invitrogen, 1:500) was used to stain actin filaments. Secondary fluorescent conjugated antibodies were then added as follows: 1:1000 CF488A-donkey α-mouse and 1:1000 CF488-donkey α-rabbit. Nuclei were stained with DAPI (Invitrogen). Cells were visualised by confocal microscopy (objective× 40, Zeiss LSM710). PLA was performed according to the manufacturer’s protocol using the Duolink Detection Kit (Cambridge BioScience Ltd). […] The number of fluorescent spots in 50 cells were quantified using ImageJ and data analysed using two-way ANOVA multiple comparison test or two-tailed Student’s t-test using Prism 7, Graphpad.

[1] = test system: endogenous NLRP3 and SUMO-2/-3; test: Proximity ligation assay (PLA) NLRP3/SUMO-2/-3; format: cell-based, murine; settings: immortalised WT BMDMs; LPS 4 h followed by 10 µM nigericin 30 min or 5 mM ATP 20 min (ATP n = 1)
Method: as §1

FLAG-tagged human NLRP3 = test: Sumoylation of NLRP3 in HEK293T cells (denaturing immunoprecipitation, immunoblot); format: cell-based; settings: for sumoylation of mutant NLRP3: transfected HEK293T cells, compared to WT NLRP3
Method: (§2) For sumoylation and ubiquitination assays 2 × 10^6 HEK293T cells were plated in 10 cm dishes and transfected with a total of 7.5 μg of DNA the following day. A modified version of “Detection of Sumoylated Proteins by Immunoprecipitation Analysis”[61] was used. Briefly, 16 h post-transfection cells were lysed in SDS lysis buffer (1% SDS, 0.15 M Tris-HCl pH 6.8 and 30% Glycerol). Lysates were boiled for 5 min and diluted 10 × in PBS-T (PBS and 1% Triton-X 100) supplemented with PR-619 (50 μM) and complete protease inhibitors. Cell lysates were sonicated for 20 s then clarified at 4 °C at 13,000 rpm for 10 min. A 20 μl of α-HA beads (SIGMA) or α-FLAG M2 beads (SIGMA) was rotated with cleared protein lysates at 4 °C for 4 h. Furthermore, 4× washes in PBS-T, supplemented with PR-619 (20 μM) and complete protease inhibitors, were performed, and samples eluted by boiling in 60 μl 1× SDS loading dye. Samples were separated by SDS-PAGE using Bolt 8% Bis-Tris plus 1.0 mm 12 well precast protein gels (Life Technologies) in MOPS buffer. Where necessary, the modification smears were quantified using Image Lab Software (Bio-Rad) and normalised to total immunoprecipitated NLRP3 in biological triplicate.

FLAG-NLRP3 = test: Ubiquitylation of NLRP3 in HEK293T cells (immunoprecipitation, immunoblot); format: cell-based, human
Method: as §2

caspase-1 = test: Caspase-1 cleavage assay in 293T-ASC-caspase-1 cells; format: cell-based, human; settings: transfected 293T-ASC-caspase-1 cells; p20 immunoblot
Method: For caspase-1 cleavage assays 1 × 10^5 HEK293T-ASC-caspase-1 cells were plated in 24-well plates and transfected with a total of 600 ng of DNA the following day. Cells were lysed in 80 μl of DISC lysis buffer (20 mM Tris-HCL pH 7.5, 150 mM NaCl, 2 mM EDTA, 1% Triton X-100, 10% Glycerol) supplemented with 2% SDS. To shred genomic DNA cell lysates were passed through 0.8 ml columns (Pierce). Lysates were quantified using BCA protein assay kit (Pierce) and 6× SDS loading dye added. Samples were boiled for 5 min before separating by SDS-PAGE using NuPAGE Novex 4–12% Bis-Tris 1.0 mm 20 well precast midi protein gels (Life Technologies) in MES buffer. Caspase-1 p20 antibody (Bally-1, human, Adipogen) was used to detect total and cleaved caspase-1 in cell lysate.

NLRP3, SUMO-2/-3, MAPL = test: Immunofluorescence staining of NLRP3, SUMO-2/-3, MAPL; format: cell-based, murine; settings: BMDMs
Method: as §1

SUMO-2/-3 proteome = test: Global sumoylation (RanGAP1, total SUMO-2/-3 proteome); format: cell-based, human; settings: HEK293T cells, nigericin
Method: as §2

NLRP3 and MAPL = test: PLA NLRP3/MAPL; format: cell-based, murine; settings: WT BMDMs; untreated, LPS 4 h, or LPS 4 h followed by 10 µM nigericin 30 min; biological triplicate
Method: as §1

What does the source list for `Nc1ncnc2c1ncn2[C@@H]1O[C@H](COP(=O)(O)OP(=O)(O)OP(=O)(O)O)[C@@H](O)[C@H]1O` [ATP]?
NLRP3-ASC inflammasome complexes (PLA) (NLRP3 and ASC): specifically formed upon treatment with LPS and nigericin or ATP; NLRP3-SUMO-2/-3 PLA signals upon inflammasome activation [1]: significantly reduced proximity labelling of NLRP3 and SUMO-2/-3

For `N#CSc1cc(SC#N)c(N)nc1N` [PR-619], which “appearance of sumoylated NLRP3” value (FLAG-tagged human NLRP3; HEK293T cells transfected with FLAG-tagged human NLRP3, endogenous SUMO-2/-3, immunoblot, in the presence vs absence of compound) is on record?
Its value is “significantly enhanced the appearance of sumoylated NLPR3”.

Which results are given for “NLRP3^K689R: full length NLRP3 with K689 mutated to R”?
ubiquitylation of mutant NLRP3 (FLAG-NLRP3; transfected HEK293T cells, compared to WT NLRP3): no effect; sumoylation of mutant NLRP3 (FLAG-tagged human NLRP3): no effect; ability of NLRP3 to activate caspase-1 (caspase-1): hyperactive in driving caspase-1 cleavage

Which results are given for `CO[C@@H]1C[C@@H](C[C@H]2CC[C@H](C)[C@H]([C@@H](C)C(=O)O)O2)O[C@]2(O[C@](C)([C@H]3CC[C@@](C)([C@@H]4O[C@@H]([C@H]5O[C@@](O)(CO)[C@H](C)C[C@@H]5C)C[C@@H]4C)O3)C[C@H]2C)[C@@H]1C` [nigericin]?
ubiquitylated NLRP3 after stimulation (FLAG-NLRP3; HEK293T cells expressing FLAG-NLRP3, nigericin time course, three independent experiments): less ubiquitylated; NLRP3-ASC inflammasome complexes (PLA) (NLRP3 and ASC): specifically formed upon treatment with LPS and nigericin or ATP; sumoylated NLRP3 after stimulation (FLAG-tagged human NLRP3; HEK293T cells expressing FLAG-NLRP3, nigericin time course, normalised to total immunoprecipitated NLRP3, three independent experiments): induced notable reduction of sumoylated NLRP3; general expression of NLRP3 and SUMO-2/-3 (NLRP3, SUMO-2/-3, MAPL; LPS and nigericin, immunofluorescence): unaffected; MAPL staining (NLRP3, SUMO-2/-3, MAPL; nigericin, conventional immunofluorescence): caused a decrease in MAPL staining; sumoylation of RanGAP1 (SUMO-2/-3 proteome; selectivity control): remained sumoylated; overall smearing pattern of total SUMO-2/-3 proteome (SUMO-2/-3 proteome; total cell lysates): no apparent change; MAPL/NLRP3 proximity signals (NLRP3 and MAPL): almost completely abolished MAPL/NLRP3 proximity signals; NLRP3-SUMO-2/-3 PLA signals upon inflammasome activation [1]: significantly reduced proximity labelling of NLRP3 and SUMO-2/-3

For “NLRP3^E692K: reported CAPS disease mutant”, which “sumoylation of mutant NLRP3” value (FLAG-tagged human NLRP3) is on record?
Its value is “did not reduce the overall sumoylation smearing pattern”.

How did the “sumoylation of mutant NLRP3” value (FLAG-tagged human NLRP3) turn out when “NLRP3^E690K: reported CAPS disease mutant” was run?
Its value is “did not reduce the overall sumoylation smearing pattern”.

B1: WT MAPL: mitochondrial-anchored protein ligase, SUMO E3 ligase (protein)
chain: MESGGRPSLCQFILLGTTSVVTAALYSVYRQKARVSQELKGAKKVHLGEDLKSILSEAPGKCVPYAVIEGAVRSVKETLNSQFVENCKGVIQRLTLQEHKMVWNRTTHLWNDCSKIIHQRTNTVPFDLVPHEDGVDVAVRVLKPLDSVDLGLETVYEKFHPSIQSFTDVIGHYISGERPKGIQETEEMLKVGATLTGVGELVLDNNSVRLQPPKQGMQYYLSSQDFDSLLQRQESSVRLWKVLALVFGFATCATLFFILRKQYLQRQERLRLKQMQEEFQEHEAQLLSRAKPEDRESLKSACVVCLSSFKSCVFLECGHVCSCTECYRALPEPKKCPICRQAITRVIPLYNS
modifications: left off: 2xHA, end not stated, kept | 2xSTREP, end not stated, state not stated
B1 was tested. Which “sumoylation of NLRP3 by co-expressed MAPL” value (FLAG-tagged human NLRP3; FLAG-NLRP3 purified under denaturing conditions, HEK293T, three independent experiments) did it give?
Its value is “sumoylated NLRP3”.
